Test results as given in patent publication US10576057B2, “Methods for treating muscle wasting and degeneration diseases” (NEWTREE CO., LTD., priority 2015, dated 2020).

Experiments:
Assay type in all cases: cell-based
p-p70S6K = p-p70S6K protein expression by western blot in L6 muscle cells
Description: (§1) L6 myoblasts (ATCC, Manassas, Va., USA) were added to a 6-well plate with Dulbecco's modified Eagle's Media (DMEM; Hyclone) containing 10% fetal bovine serum (FBS; Hyclone, Logan, Utah, USA) at a concentration of 2×10^5 cells/mL. When the cell density reached about 80 to 85%, the medium in the wells was removed. […] Meanwhile, a group treated with 0.01% DMSO instead of the sample was used as a control group. This procedure was carried out for 6 days in two days to differentiate and then dissolved in NP-40 buffer solution (ELPIS-Biotech, Daejeon, Republic of Korea) containing proteinase inhibitor cocktail. The cells dissolved in the buffer solution were transferred to a 1.5-mL tube and centrifuged at 13,000 rpm for 10 minutes to take only a supernatant. The supernatant was quantified using Bradford (Bio-Rad Laboratories Inc., Hercules, Calif., USA). The quantified proteins were boiled for 5 minutes, separated by electrophoresis on 10% SDS-PAGE, and were transferred to the nitrocellulose membrane. A p-mTOR primary antibody (Cellular signaling technology, Beverly, Mass., USA) was diluted with 2.5% bovine serum albumin (BSA) at a ratio of 1:1000 and reacted with proteins transferred to the nitrocellulose membrane for 20 hours at room temperature. […]

p-4EBP1 = p-4EBP1 protein expression by western blot in L6 muscle cells
Description: as §1

MyoD = MyoD mRNA expression by RT-PCR in L6 muscle cells; conditions: 6 days
Description: Muscle cells, L6 myoblasts (ATCC) were added to a 6-well plate at 2×10^5 cells/ml together with DMEM (Hyclone) containing 10% FBS (Hyclone). When the cell density reached about 80 to 85%, the medium in the wells was removed. […] Meanwhile, a group treated with 0.01% DMSO instead of the sample was used as a control group. This procedure was carried out for 6 days in two days to differentiate and total RNA was isolated using TRIzol reagent (Invitrogen. Carlsbad, Calif., USA). The isolated total RNA was quantified using NanoDrop 1000 (Thermo Fisher Scientific Inc., MA, USA). Quantified 16 μL of RNA was synthesized into cDNA using Reverse Transcriptase Premix (ELPIS-Biotech) and PCR machine (Gene Amp PCR System 2700: Applied Biosystems, MA, USA) at 42° C. for 55 minutes and 70° C. for 15 minutes. 4 μL out of 16 μL cDNA was amplified by PCR using the following specific primers (Bioneer, Daejeon, Republic of Korea) and PCR premix (ELPIS-Biotech). PCR was performed by repeating 30 cycles of 95° C. for 30 seconds, 60° C. for 1 minute, and 72° C. for 1 minute.
PCR-amplified cDNA was separated by electrophoresis on 1.5% agarose gel and cDNA band was identified using G:BOX EF imaging system (Syngene).
L6 myoblast (ATCC) were cultured in the same manner as in Example 7. […]

CC(C)=CCc1c(-c2ccc(O)cc2O)oc2c([C@H]3C=C(C)C[C@@H](c4ccc(O)cc4O)[C@@H]3C(=O)c3ccc(O)cc3O)c(O)cc(O)c2c1=O [Kuwanon G, 8-[(1S,5R,6S)-6-(2,4-Dihydroxybenzoyl)-5-(2,4-dihydroxyphenyl)-3-methyl-2-cyclohexen-1-yl]-2-(2,4-dihydroxyphenyl)-5,7-dihydroxy-3-(3-methyl-2-buten-1-yl)-4H-chromen-4-one]
increased: expression of p-p70S6K protein (p-p70S6K; 1 μM and 5 μM) | expression of p-4EBP1 protein (p-4EBP1; 1 μM and 5 μM) | expression of MyoD mRNA (MyoD; 1 μM and 5 μM)

CC(C)=CCc1c(-c2ccc(O)cc2O)oc2c3c(cc(O)c2c1=O)OC(C)(C)C=C3 [Morusin, 2-(2,4-Dihydroxyphenyl)-5-hydroxy-8,8-dimethyl-3-(3-methyl-2-buten-1-yl)-4H,8H-benzo[1,2-b:3,4-b′]dipyran-4-one]
increased: expression of p-p70S6K protein (p-p70S6K; 0.1 and 1 μM) | expression of p-4EBP1 protein (p-4EBP1; 0.1 and 1 μM) | expression of MyoD mRNA (MyoD; 0.1 and 1 μM)
